A value given as a limit tells only on which side of the number the result lay.

A short description of data set [1]: Cyclic voltammetry in Pt/Na/Na cell with sodium electrolyte. Type of data set: physicochemical. As to conditions: NaPF6 in propylene carbonate. The protocol:
The redox materials described herein also can be utilized with sodium-based electrolyte salts. For example, FIG. 22(a) provides a cyclic voltammogram obtained with about 17 mM DBBB in 0.247 M Na PF6 in propylene carbonate, in a Pt/Na/Na cell at scan rates of 5, 20, 50, and 100 mV/s. FIG. 22(b) provides a cyclic voltammogram obtained with about 13 mM 2,3,6-trimethylquinoxaline in 0.217 M NaPF6 in propylene carbonate at a 20 mV/s scan rate.

Data set [2] can be described thus: Solubility in solvent or electrolyte. Type of data set: physicochemical.
Data set [3] is described as follows: Cyclic voltammetry in Pt/Li/Li three-electrode cell. Type of data set: physicochemical. The conditions noted are these: for redox properties from cyclic voltammogram: lithium electrolyte and concentration differ per compound; for performance compared with quinoxaline: 0.005 M in Electrolyte B; for Potential: 10 mM in 1.2 M LiPF6 in EC/EMC (3:7 by weight), Pt/Li/Li. As for the experimental part:
The upper and lower redox potentials shown in FIG. 5 were determined by a combination of average peak potential and graphical analysis of the cyclic voltammograms over a range of scan rates (5, 10, 20, 50, 100, and 200 mV/s).
Cyclic voltammetry (CV) were performed in a custom-made airtight three-electrode electrochemical cell with a 2-mm diameter platinum disk working electrode and lithium metal counter and reference electrodes. Prior to use, the platinum disk electrode was dipped in nitric acid solution (about 50 vol % HNO3, Ricca Chemical Company) and then polished on a MICROCLOTH® pad with 0.3 μm and 0.05 μm alumina (Buehler Ltd., Lake Bluff, Ill.). After polishing, the electrode was thoroughly rinsed with distilled water and dried with house nitrogen. The electrochemical cell was then assembled in an Argon-filled glove box and transferred out to perform measurements. […] All evaluations were performed in triplicate at room temperature.
The redox potential of DBBB was calculated by averaging the oxidation and reduction peak potentials in the two different electrolytes at various scan rates (5, 10, 20, 50, 100, and 200 mV/s). […] The shift in the peak potential with the scan rate may be caused by the limited charge-transfer kinetics of the active species (DBBB) and the uncompensated resistance, which is commonly called the “iR drop”. Because the polarization from the kinetic effect and iR drop is triggered by the current flowing through the electrochemical cell, the average peak potential [(Epa+Epc)/2] gives a good estimation of the redox potential of the reversible electroactive species. […] Evaluations were performed in triplicate in a Pt/Li/Li cell at room temperature.

Data set [4] is described as follows: Diffusion coefficient from Randle-Sevcik measurements. Type of data set: physicochemical. The protocol:
2,5-Di-tert-butyl-1,4-bis(2-methoxyethoxy)benzene (“DBBB”) is a redox material developed at Argonne National Laboratory for overcharge protection in Li-ion batteries. […] The diffusion coefficient of DBBB was determined to be about 1.30×10^−6 cm^2/s in the battery electrolyte based on Randle-Sevcik measurements. However, Electrolyte A is non-ideal for flow battery applications due to high volatility, extreme moisture sensitivity, and high materials cost. Thus, an electrolyte consisting of 0.2 M LiBF4 in propylene carbonate (“Electrolyte B”) was also investigated as a more robust and lower cost alternative. FIG. 2b show iR-corrected cyclic voltammograms of 0.005 M DBBB in Electrolyte A and in Electrolyte B at a scan rate of 20 mV/s. […] Thus, 2,5-di-tert-butyl-1,4-dialkoxybenzene compounds, such as DBBB, are active in different electrolyte systems, and the performance of these materials can be tailored by the choice of the electrolyte composition.

The conditions of data set [5]: Li-ion cell, 100% overcharge; cited from earlier work.
The nature of data set [6]: Intrinsic capacity and energy density (Table 1). Format: physicochemical. From the text:
Table 1 provides a summary of the useful redox properties of these compounds.

As for `Cc1ccc2nc(C)c(C)nc2c1` [2,3,6-trimethylquinoxaline], the “redox properties from cyclic voltammogram” value (from here on “redox properties”) in data set [1] is reported as “suitable reversible redox properties”.
In the case of `Oc1nc2ccccc2nc1O` [2,3-Dihydroxyquinoxaline], the “solubility in electrolyte solution” value in data set [2] (Electrolyte B) was “not soluble”.
For `BrCc1nc2ccccc2nc1CBr` [2,3-bis(bromomethyl)quinoxaline], in data set [3] (Electrolyte B), the redox activity entry was “no redox activity was observed”.
With `CC(=O)c1cnc2ccccc2n1` [2-Acetylquinoxaline], in data set [3] (Electrolyte B), the redox activity entry is reported as “some redox activity”; the “separation of oxidation and reduction events” value is “about 1 V”.
On to `FC(F)(F)c1cnc2ccccc2n1` [2-trifluoromethylquinoxaline], for which, in data set [3] (Electrolyte B), the redox activity entry was “no redox activity was observed”.
On to `CN1c2ccccc2N(C)c2ccccc21` [5,10-dihydro-5,10-dimethylphenazine], for which the “redox properties” value in data set [3] (Pt/Li/Li cell) is “suitable redox properties”.
On to `Cc1cccc2nccnc12` [5-methylquinoxaline], for which, in data set [3] (Pt/Li/Li cell), the “performance compared with quinoxaline” value is given as “lower activity”.
Take `Cc1cc2nc(-c3ccccn3)c(-c3ccccn3)nc2cc1C` [6,7-dimethyl-2,3-di(2-pyridyl)quinoxaline]: in data set [3] (Electrolyte B, Pt/Li/Li cell, average peak potential method), the lower redox potential result is on record as “about 2.6 V”.
In the case of `Cc1ccc2nccnc2c1` [6-methylquinoxaline], in data set [3] (Pt/Li/Li cell), the “performance compared with quinoxaline” value was “slightly better performance than quinoxaline”.
For the molecule `Fc1c(F)c(F)c2c(c1F)OCCO2` [Compound 5], the “redox properties” value in data set [3] (Pt/Li/Li cell) is “redox properties suitable for use as redox reactants for the positive electrolyte”.
In the case of `Fc1ccc(B2Oc3c(F)c(F)c(F)c(F)c3O2)c(F)c1` [Compound 6], the “redox properties” value in data set [3] (Pt/Li/Li cell) is reported as “redox properties suitable for use as redox reactants for the positive electrolyte”.
Same read-out and setting: the result for `Fc1c(F)c(F)c2c(c1F)OB(c1cc(C(F)(F)F)ccc1C(F)(F)F)O2` [Compound 7] reads “redox properties suitable for use as redox reactants for the positive electrolyte”; that for `Fc1c(F)c(F)c(B2Oc3c(F)c(F)c(F)c(F)c3O2)c(F)c1F` [Compound 8], “redox properties suitable for use as redox reactants for the positive electrolyte”.
As to `COCCOc1cc(C(C)(C)C)c(OCCOC)cc1C(C)(C)C` [DBBB, 2,5-Di-tert-butyl-1,4-bis(2-methoxyethoxy)benzene], the “redox potential, average of anodic and cathodic potentials [(Epa+Epc)/2]” value in data set [3] (0.005 M in Electrolyte A (1.2 M LiPF6 in EC/EMC 3/7 by volume), room temperature) was “about 3.927 V vs. Li/Li^+”. The redox potential in data set [3] (0.005 M in Electrolyte B (0.2 M LiBF4 in propylene carbonate), room temperature) was determined as 4.022 V vs. Li/Li^+. Moreover, the diffusion coefficient result is “about 1.30×10^−6 cm^2/s” in data set [4] (Electrolyte A) and “about 1.53×10^−6 cm^2/s” in data set [4] (Electrolyte B). Besides, in data set [1], the “redox properties” value is recorded as “suitable reversible redox properties”. In data set [5], the “potential at which active in overcharge protection” value is given as “about 4.0 V vs. Li/Li^+”.
`c1ccc2nccnc2c1` [Quinoxaline]: the solubility (commonly the dissolved amount per volume that the medium holds) in data set [2] (organic solvent or mixture, in propylene carbonate) is at least 2000 mM.
On to `COCCOc1c(F)c(F)c(OCCOC)c(F)c1F` [TFBMEB, 1,2,4,5-tetrafluoro-3,6-bis(2-methoxyethoxy)benzene], for which the Potential in data set [3] was determined as 4.70 V vs. Li/Li. In data set [6], the “Energy Density” value is reported as 422.5 Wh/Kg and the “Intrinsic Capacity” value was determined as 89.9 mAh/g.
For `CCOc1c(F)c(F)c(OCC)c(F)c1F` [TFDEB, 1,2,4,5-tetrafluoro-3,6-diethoxybenzene], the Potential in data set [3] is 4.63 V vs. Li/Li. Also, in data set [6], the “Energy Density” value worked out at 520.9 Wh/Kg and the “Intrinsic Capacity” value came to 112.5 mAh/g.
The corresponding values for `COc1c(F)c(F)c(OC)c(F)c1F` [TFDMB, 1,2,4,5-tetrafluoro-3,6-dimethoxybenzene] are 4.70 V vs. Li/Li, 599.7 Wh/Kg and 127.6 mAh/g.
As for `O=C(c1ccccc1)c1ccccc1` [benzophenone], the “redox properties” value in data set [3] (Pt/Li/Li cell) is listed as “suitable redox properties”.
For the molecule `[Cl-].[Cl-].c1ccc(C[n+]2ccc(-c3cc[n+](Cc4ccccc4)cc3)cc2)cc1` [bis-benzyl-4,4′-bipyridinium dichloride], the “redox properties” value in data set [3] (Pt/Li/Li cell) is on record as “suitable redox properties”.

(Values after US10424806B2, “Organic non-aqueous cation-based redox flow batteries” (UCHICAGO ARGONNE, LLC, priority 2012, dated 2019).)
